Test results reported in a compilation of properties of binary mixtures (doi:10.1016/j.molliq.2020.112718).

Test: xn = mol fraction of the nth substance listed
Conditions: 100 kPa

CCOCC[n+]1ccn(C)c1.C[C@@H](O)[C@H](N)C(=O)[O-] + O
viscosity [mPa·s]
Conditions | 298.15 K | 303.15 K | 308.15 K | 313.15 K | 318.15 K | 323.15 K | 328.15 K
x1 = 0.3157 | 834 | 538 | 344 | 231 | 167 | – | 97.8
x1 = 0.3647 | 889 | 571 | 360 | – | 174.5 | – | –
x1 = 0.4246 | 938 | 604 | 376 | 259 | 180.6 | 130.8 | 102.6
x1 = 0.508 | 990 | 638 | 393 | 273 | 187.2 | 136.2 | –
x1 = 0.6189 | – | 671 | 410 | 287 | 195 | 143.5 | 109.6
x1 = 1 | 1133 | 730 | 439 | 313 | 207 | 153.8 | –

COCC[n+]1ccn(C)c1.C[C@@H](O)[C@H](N)C(=O)[O-] + O
viscosity [mPa·s]
Conditions | 298.15 K | 303.15 K | 308.15 K | 313.15 K | 318.15 K | 323.15 K | 328.15 K
x1 = 0.3313 | 740 | 473 | – | 199.2 | 139.9 | 101.7 | 82.2
x1 = 0.3795 | 767 | 500 | 306 | 210 | 148.1 | 108.5 | 84.9
x1 = 0.4475 | 800 | 529 | 320 | 222 | 155.8 | – | 88.2
x1 = 0.5347 | 829 | – | 332 | 233 | – | – | 91.3
x1 = 0.657 | 852 | – | 344 | 242 | 171.8 | – | 94.8
x1 = 1 | 900 | 625 | 362 | 260 | 184.4 | 136.8 | 99.6
